How the values were obtained:
Rattus norvegicus [1] = organism: Rattus norvegicus; experiment: Vasorelaxant potency determined by measurement of IC50 value for relaxation of rat aorta precontracted with methoxamine; type: functional
Rattus norvegicus [2] = organism: Rattus norvegicus; experiment: Percent increase in cardio protective activity at concentration of 10 uM; type: functional, Heart
Rattus norvegicus [3] = organism: Rattus norvegicus; experiment: Antiischemic potency is determined by EC25 value for increase in time to the onset of contracture in globally ischemic isolated perfused rat hearts.; type: functional
Rattus norvegicus [4] = organism: Rattus norvegicus; experiment: Ratio of the EC25 value for time to contracture and IC50 value for vasorelaxant potency indicates selectivity in vitro for the ischemic myocardium.; type: functional
[5] = Maximum plasma concentration following oral administration of 30 umol/kg; type: ADME, organism-based; parameters: dose 30 umol/kg, route oral
[6] = Pharmacokinetic parameter Tmax following oral administration of 30 umol/kg; type: ADME, organism-based; details: in vivo
[7] = Apparent terminal elimination half life in rats; type: ADME, organism-based; details: rat, in vivo
[8] = Oral bioavailability in rats was determined in vivo; type: ADME, organism-based; details: rat, read-out: Bioavailabiility

Row | SMILES | IC50 (Rattus norvegicus [1]) [µM] | Increase (Rattus norvegicus [2]) [%] | EC25 (Rattus norvegicus [3]) [µM] | Ratio (Rattus norvegicus [4]) | other results
1 | CC1(C)Oc2ccc(C#N)cc2[C@H](N(Cc2ncco2)c2ccccc2)[C@H]1O | > 30 |  | 5.3 | <0.18 | 
2 | CCOC(=O)CCCN(c1ccccc1)[C@H]1c2cc(C#N)ccc2OC(C)(C)[C@@H]1O | > 30 |  | 5.7 |  | 
3 | CC1(C)Oc2ccc(C#N)cc2[C@H](N(CC(=O)O)c2ccccc2)[C@H]1O | > 100 | 0 |  |  | 
4 | CC1(C)Oc2ccc(C#N)cc2[C@@H](N(Cc2ncc[nH]2)c2ccc(Cl)cc2)[C@@H]1O | > 30 | 14 |  |  | 
5 | CCOC(=O)CN(c1nc(C)cs1)[C@H]1c2cc(C#N)ccc2OC(C)(C)[C@@H]1O | 84 |  | 7.8 | <0.09 | 
6 | CC1(C)Oc2ccc(C#N)cc2[C@@H](/N=C(\NC#N)Nc2ccc(Cl)cc2)[C@@H]1O |  |  | 2.5 | 1.4 | 
7 | CCNC(=O)CN(c1ccccc1)[C@H]1c2cc(C#N)ccc2OC(C)(C)[C@@H]1O | > 30 | 21 |  |  | 
8 | CCOC(=O)CN(c1nc2ccccc2o1)[C@H]1c2cc(C#N)ccc2OC(C)(C)[C@@H]1O | > 30 | 0 |  |  | 
9 | COC(=O)c1cc2ccccc2n1[C@@H]1c2cc(C#N)ccc2OC(C)(C)[C@H]1O |  |  | 8.1 | 0.25 | 
10 | CC(=O)NCCN(c1ccccc1)[C@H]1c2cc(C#N)ccc2OC(C)(C)[C@@H]1O | > 30 | 5 |  |  | 
11 | CC1(C)Oc2ccc(C#N)cc2[C@H](N(Cc2ncc[nH]2)c2ccc(Cl)cc2)[C@H]1O [BMS-191095] | > 30 |  | 1.4 | <0.05 | Cmax [5]: 1300 nM; Tmax [6]: 1.9 h; half-life [7]: 3 h; bioavailability [8]: 47%
12 | CC1(C)Oc2ccc(C#N)cc2[C@@H](N2CCCC2=O)[C@@H]1O [CROMAKALIM] |  |  | 8.9 | 278 | 
13 | CC1(C)Oc2ccc(C#N)cc2[C@H](N(Cc2ncc[nH]2)c2ccccc2)[C@H]1O | > 30 |  | 4.3 | <0.14 | 
14 | CC1(C)Oc2ccc(C#N)cc2[C@H](Nc2ccccc2)[C@H]1O |  |  | 3.9 | 3.9 | 
15 | CC1(C)Oc2ccc(C#N)cc2[C@H](N(CCS(C)(=O)=O)c2ccccc2)[C@H]1O | 27 | 0 |  |  | 
16 | CC1(C)Oc2ccc(C#N)cc2[C@H](N(Cc2ccco2)c2ccccc2)[C@H]1O | 12 |  | 3.2 | 0.27 | 
17 | Cc1noc(CN(c2ccccc2)[C@H]2c3cc(C#N)ccc3OC(C)(C)[C@@H]2O)n1 | > 30 |  | 10 | <0.33 | 
18 | CC1(C)Oc2ccc(C#N)cc2[C@H](N(CC#N)c2ccccc2)[C@H]1O | 59 | 8 |  |  | 
19 | Cc1cc(CN(c2ccccc2)[C@H]2c3cc(C#N)ccc3OC(C)(C)[C@@H]2O)on1 | > 30 | 11 |  |  | 
20 | CCCCOC(=O)CN(c1ccccc1)[C@H]1c2cc(C#N)ccc2OC(C)(C)[C@@H]1O | 27 | 8 |  |  | 
21 | COCCN(c1ccccc1)[C@H]1c2cc(C#N)ccc2OC(C)(C)[C@@H]1O | > 30 | 15 |  |  | 

Further lines, with some results ahead:

Row | IC50 (Rattus norvegicus [1]) [µM] | SMILES | Increase (Rattus norvegicus [2]) [%] | EC25 (Rattus norvegicus [3]) [µM] | Ratio (Rattus norvegicus [4]) | other results
22 | 54 | CCOC(=O)CCN(c1ccccc1)[C@H]1c2cc(C#N)ccc2OC(C)(C)[C@@H]1O | 26 |  |  | 
23 | > 30 | CC1(C)Oc2ccc(C#N)cc2[C@H](N(Cc2ncc[nH]2)c2ccc(F)cc2)[C@H]1O |  | 3.3 | 0.11 | 
24 | > 30 | CCOC(=O)CN(c1ccc(F)cc1)[C@H]1c2cc(C#N)ccc2OC(C)(C)[C@@H]1O |  | 3.8 | <0.017 | 
25 | > 30 | CCOC(=O)CN(c1ccccc1)[C@H]1c2cc(C#N)ccc2OC(C)(C)[C@@H]1O | 38 | 2.2 | <0.07 | 
26 | > 30 | CCOC(=O)CN(c1ccc(Cl)cc1)[C@H]1c2cc(C#N)ccc2OC(C)(C)[C@@H]1O |  | 6.5 | <0.22 | 
27 | 47 | CCOP(=O)(CN(c1ccc(F)cc1)[C@H]1c2cc(C#N)ccc2OC(C)(C)[C@@H]1O)OCC |  | 4.9 | 0.104 | 
28 | 2.2 | CCOC(=O)NN(c1ccccc1)[C@H]1c2cc(C#N)ccc2OC(C)(C)[C@@H]1O |  | 4.3 | 1.95 | 
29 | 43 | CCOC(=O)C(=O)N(c1ccc(F)cc1)[C@H]1c2cc(C#N)ccc2OC(C)(C)[C@@H]1O | 0 |  |  | 
30 | > 30 | CCOC(=O)CN(c1ccccc1)[C@@H]1c2cc(C#N)ccc2OC(C)(C)[C@H]1O [listing 1 of 2 here] | 5 |  |  | 
31 | > 30 | CCOC(=O)CN(c1ccccc1)[C@@H]1c2cc(C#N)ccc2OC(C)(C)[C@H]1O [listing 2 of 2 here] |  | 4.7 | <0.17 | 
